The term IC50 denotes the concentration that gives 50% inhibition.

The values below come from patent US11034648B2, “Cystobactamide derivatives” (priority 2017, dated 2021).

Values after ≈ are worked out from the molar mass of the structure shown. Like-named read-outs stand apart in the source and are kept apart here.

One assay concerns E. coli ΔtolC. Kind of assay: microbe, parasite or virus in culture. Particulars: Escherichia coli, 16 h, read-out: MIC E. coli ΔtolC, small panel, Tables 1a/1b; no visual growth after approx. 16 h. It counts as cell-based. Summed up:
(§1)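 Inoculum: 10^4-10^6 cfu/mL from overnight culture. Medium: cation-adjusted Müller-Hinton broth. Incubation: approx. 16 h, 30-37° C. Read-out: visual, MIC at no growth.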

The subject of the next assay is P. aeruginosa ΔmexAB. Kind of assay: microbe, parasite or virus in culture. The assay is classed as cell-based. To be noted: Pseudomonas aeruginosa, 16 h, read-out: MIC P. aeruginosa ΔmexAB, efflux-deficient strain; small panel, Tables 1a/1b. The method, boiled down:
as §1

The test system of another assay is E. coli WT DSM-1116. Put plainly: MIC, microbroth dilution susceptibility assay. The assay is classed as cell-based. To be noted: Escherichia coli, no visual growth after approx. 16 h. Summed up:
as §1
A general note: In broth dilution the organism is exposed to a series of concentrations in liquid medium.

The next assay relates to P. aeruginosa WT PA14. Kind of assay: MIC, microbroth dilution susceptibility assay. The assay is classed as cell-based. Particulars: Pseudomonas aeruginosa. The method, boiled down: as §1
In another assay the test system is S. aureus Newman. Kind of assay: MIC, microbroth dilution susceptibility assay. It counts as cell-based. To be noted: Staphylococcus aureus, NEWMAN, read-out: MIC S. aureus Newman. Summed up: as §1
A further assay deals with T1, E. coli gyrase (Escherichia coli, UniProt P0AES4+P0AES6).
T1 construct: purchased Inspiralis
Put plainly: E. coli gyrase supercoiling (sc) assay. The assay is classed as biochemical. Particulars: supercoiling assay kit, agarose gel quantification; read-out: Ec gyrase sc IC50. On the procedure:
The target activity on E. coli gyrase was assessed as described in Baumann et al., Angew Chem Int Ed Engl. 2014; 53(52):14605-9 using a commercial supercoiling (sc) assay kit from Inspiralis according to the manufacturer's instructions. The samples were separated on 0.8% (w/v) agarose gels and relaxed and supercoiled plasmid was visualized by ethidium bromide staining. Half-inhibitory concentrations (IC50) were calculated after image analysis and quantification (ImageJ) based on sigmoidal curve fitting (OriginPro).

Another assay has as its system A. baumannii DSM-30008. Kind of assay: MIC, microbroth dilution susceptibility assay. The assay is classed as cell-based. To be noted: Acinetobacter baumannii, DSM30008; large panel, Table 2a. The method, boiled down:
as §1

For the next assay, the system named is C. freundii DSM-30039. Kind of assay: MIC, microbroth dilution susceptibility assay. Particulars: Citrobacter freundii, DSM30039; large panel, Table 2a. The assay is classed as cell-based. The method, boiled down:
as §1

Another assay has as its system E. aerogenes DSM-30053. Put plainly: MIC, microbroth dilution susceptibility assay. It counts as cell-based. To be noted: Klebsiella aerogenes, DSM30053; large panel, Table 2a. Summed up:
as §1

The next assay deals with E. coli WT. Kind of assay: MIC, microbroth dilution susceptibility assay. The assay is classed as cell-based. Particulars: Escherichia coli; large panel, Table 2a. Summed up: as §1
The subject of a further assay is K. pneumoniae DSM-30104. Put plainly: MIC, microbroth dilution susceptibility assay. The assay is classed as cell-based. Particulars: Klebsiella pneumoniae, DSM30104; large panel, Table 2a. Summed up:
as §1

For a further assay, the system named is P. vulgaris DSM-2140. Put plainly: MIC, microbroth dilution susceptibility assay. It counts as cell-based. Particulars: Proteus vulgaris, DSM2140; large panel, Table 2a. The method, boiled down:
as §1

The next assay concerns S. aureus ATCC-29213. Put plainly: MIC, microbroth dilution susceptibility assay. The assay is classed as cell-based. To be noted: Staphylococcus aureus, ATCC29213; large panel, Table 2a. Summed up: as §1
In a further assay the test system is S. marcescens DSM-30121. Put plainly: MIC, microbroth dilution susceptibility assay. It counts as cell-based. To be noted: Serratia marcescens, DSM30121; large panel, Table 2a. Summed up:
as §1

Where [1] appears, read: DSM1116, 16 h, read-out: MIC E. coli WT DSM-1116, small panel, Tables 1a/1b.
[2] abbreviates: PA14, read-out: MIC P. aeruginosa WT PA14.
Where [3] appears, read: DSM1116, small panel, Tables 1a/1b, read-out: MIC E. coli WT DSM-1116.
Setting [4] is: PA14, small panel, Tables 1a/1b, read-out: MIC P. aeruginosa WT PA14.

T1 sequence (P0AES4 whole entry, one chain of several): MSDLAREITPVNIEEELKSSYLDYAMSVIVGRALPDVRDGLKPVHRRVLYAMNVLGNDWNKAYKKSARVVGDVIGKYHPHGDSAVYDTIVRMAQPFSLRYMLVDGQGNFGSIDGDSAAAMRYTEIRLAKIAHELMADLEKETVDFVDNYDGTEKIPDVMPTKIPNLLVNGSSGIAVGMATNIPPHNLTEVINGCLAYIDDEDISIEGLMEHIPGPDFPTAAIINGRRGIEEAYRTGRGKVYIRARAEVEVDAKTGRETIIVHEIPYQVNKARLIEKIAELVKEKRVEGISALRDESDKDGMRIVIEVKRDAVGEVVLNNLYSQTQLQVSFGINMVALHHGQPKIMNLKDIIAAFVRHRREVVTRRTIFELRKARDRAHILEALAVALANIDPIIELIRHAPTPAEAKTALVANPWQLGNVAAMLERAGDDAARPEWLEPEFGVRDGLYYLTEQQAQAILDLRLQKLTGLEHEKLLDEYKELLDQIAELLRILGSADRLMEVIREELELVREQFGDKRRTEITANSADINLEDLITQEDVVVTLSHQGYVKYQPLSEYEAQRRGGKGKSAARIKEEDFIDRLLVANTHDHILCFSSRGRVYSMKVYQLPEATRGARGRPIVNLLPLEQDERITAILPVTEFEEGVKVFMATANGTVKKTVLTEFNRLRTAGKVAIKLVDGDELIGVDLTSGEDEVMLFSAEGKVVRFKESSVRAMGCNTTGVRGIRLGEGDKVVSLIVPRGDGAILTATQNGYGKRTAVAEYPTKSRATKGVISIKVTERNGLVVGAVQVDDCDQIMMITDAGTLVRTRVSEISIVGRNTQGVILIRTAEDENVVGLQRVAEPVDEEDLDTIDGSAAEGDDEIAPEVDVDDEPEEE

In the case of `CC(C)Oc1c(NC(=O)c2ccc(NC(=O)[C@H](CC(N)=O)NC(=O)c3ccc(NC(=O)c4ccc(C5(C(F)(F)F)N=N5)cc4)cc3)cc2)ccc(C(=O)Nc2ccc(C(=O)O)cc2)c1O` [Compound 37, (S)-4-(4-(4-(4-amino-4-oxo-2-(4-(4-(3-(trifluoromethyl)-3H-diazirin-3-yl)benzamido)benzamido)butanamido)benzamido)-2-hydroxy-3-isopropoxybenzamido)benzoic acid], the MIC is 8 µg/mL (≈ 8.94 µM) in the assay with E. coli ΔtolC; above 64 µg/mL in the assay with P. aeruginosa ΔmexAB; 16 µg/mL (≈ 17.9 µM) in the assay with E. coli WT DSM-1116 (setting [1]); above 64 µg/mL in the assay on P. aeruginosa WT PA14 (setting [2]); above 64 µg/mL with S. aureus Newman. In addition, the IC50 on E. coli gyrase is 16000 nM.
As to `CC(C)Oc1c(N)ccc(C(=O)Nc2ccc(C(=O)N[C@@H](CC(N)=O)C(=O)Nc3ccc(C(=O)Nc4ccc(C(=O)Nc5ccc(C(=O)O)cc5)c(O)c4OC(C)C)cc3)cc2)c1O` [Compound 49, (S)-4-(4-(4-(4-amino-2-(4-(4-amino-2-hydroxy-3-isopropoxybenzamido)benzamido)-4-oxobutanamido)benzamido)-2-hydroxy-3-isopropoxybenzamido)benzoic acid], the MIC in the assay on E. coli ΔtolC is 0.01 to 0.06 µg/mL (≈ 0.0114 to 0.0685 µM); with P. aeruginosa ΔmexAB it was 2 to 4 µg/mL (≈ 2.28 to 4.57 µM); against A. baumannii DSM-30008 it was 32 µg/mL (≈ 36.5 µM); in the assay with C. freundii DSM-30039 it was 2 µg/mL (≈ 2.28 µM); with E. aerogenes DSM-30053, above 64 µg/mL; in the assay on E. coli WT DSM-1116 (setting [3]) it was 2 µg/mL (≈ 2.28 µM). Moreover, the MIC against E. coli WT was 2 µg/mL (≈ 2.28 µM); in the assay with K. pneumoniae DSM-30104, above 64 µg/mL; in the assay with P. aeruginosa WT PA14 (setting [4]), above 64 µg/mL; in the assay on P. vulgaris DSM-2140 it was 4 µg/mL (≈ 4.57 µM); against S. aureus ATCC-29213, above 64 µg/mL; in the assay on S. aureus Newman (small panel, Tables 1a/1b), above 64 µg/mL. The molecule also displayed an MIC with S. marcescens DSM-30121 above 64 µg/mL.
With `CC(C)Oc1c(NC(=O)c2ccc(NC(=O)c3ccc(NC(=O)[C@H](CC(N)=O)NC(=O)c4ccc(NC(=O)c5ccc([N+](=O)[O-])cc5)cc4)cc3)c(OC(C)C)c2O)ccc(C(=O)O)c1O` [Compound 61, (S)-4-(4-(4-(4-amino-2-(4-(4-nitrobenzamido)benzamido)-4-oxobutanamido)benzamido)-2-hydroxy-3-isopropoxybenzamido)-2-hydroxy-3-isopropoxybenzoic acid], the MIC is 0.125 to 0.25 µg/mL (≈ 0.138 to 0.276 µM) in the assay with E. coli ΔtolC; 1 to 2 µg/mL (≈ 1.1 to 2.21 µM) with P. aeruginosa ΔmexAB; 1 µg/mL (≈ 1.1 µM) against A. baumannii DSM-30008; 0.5 µg/mL (≈ 0.552 µM) with C. freundii DSM-30039; above 64 µg/mL in the assay on E. aerogenes DSM-30053; 0.5 µg/mL (≈ 0.552 µM) with E. coli WT DSM-1116 (setting [3]). The MIC is 0.5 µg/mL (≈ 0.552 µM) with E. coli WT; above 64 µg/mL against K. pneumoniae DSM-30104; above 64 µg/mL in the assay with P. aeruginosa WT PA14 (setting [4]); 0.5 µg/mL (≈ 0.552 µM) in the assay with P. vulgaris DSM-2140; 0.05 µg/mL (≈ 0.0552 µM) against S. aureus ATCC-29213; 0.05 µg/mL (≈ 0.0552 µM) in the assay on S. aureus Newman (small panel, Tables 1a/1b). Besides, in the assay with S. marcescens DSM-30121, the MIC is above 64 µg/mL.
For the molecule `CC(C)Oc1c(NC(=O)c2ccc(NC(=O)c3ccc(NC(=O)[C@H](CC(N)=O)NC(=O)c4ccc(NC(=O)c5ccc(C#N)cc5)cc4)cc3)c(OC(C)C)c2O)ccc(C(=O)O)c1O` [Compound 62, (S)-4-(4-(4-(4-amino-2-(4-(4-cyanobenzamido)benzamido)-4-oxobutanamido)benzamido)-2-hydroxy-3-isopropoxybenzamido)-2-hydroxy-3-isopropoxybenzoic acid], the MIC in the assay with E. coli ΔtolC is at most 0.03 µg/mL; in the assay on P. aeruginosa ΔmexAB it was 1 µg/mL (≈ 1.13 µM); in the assay on A. baumannii DSM-30008, 0.5 µg/mL (≈ 0.564 µM); against C. freundii DSM-30039 it was 0.125 µg/mL (≈ 0.141 µM); in the assay on E. aerogenes DSM-30053, above 64 µg/mL; in the assay on E. coli WT DSM-1116 (setting [3]) it was 0.25 µg/mL (≈ 0.282 µM). Moreover, the MIC against E. coli WT is 0.125 to 0.25 µg/mL (≈ 0.141 to 0.282 µM); with K. pneumoniae DSM-30104, above 64 µg/mL; in the assay on P. aeruginosa WT PA14 (setting [4]), above 64 µg/mL; in the assay on P. vulgaris DSM-2140, 0.25 µg/mL (≈ 0.282 µM); in the assay with S. aureus ATCC-29213, 0.025 µg/mL (≈ 0.0282 µM); in the assay with S. aureus Newman (small panel, Tables 1a/1b), at most 0.03 µg/mL. For the same molecule, the MIC with S. marcescens DSM-30121 is above 64 µg/mL.
As for `CC(C)Oc1c(-n2cc(-c3ccc(NC(=O)[C@H](CC(N)=O)NC(=O)c4ccc(NC(=O)c5ccc(C#N)cc5)cc4)cc3)nn2)ccc(C(=O)Nc2ccc(C(=O)O)cc2)c1O` [Compound 119, 4-(4-(4-(4-(4-amino-2-(4-(4-cyanobenzamido)benzamido)-4-oxobutanamido)phenyl)-1H-1,2,3-triazol-1-yl)-2-hydroxy-3-isopropoxybenzamido)benzoic acid], the MIC in the assay on E. coli ΔtolC is below 0.03 µg/mL; with P. aeruginosa ΔmexAB, 2 µg/mL (≈ 2.39 µM); with E. coli WT DSM-1116 (setting [1]) it was 0.06 µg/mL (≈ 0.0718 µM); in the assay with P. aeruginosa WT PA14 (setting [2]), 8 µg/mL (≈ 9.57 µM); in the assay on S. aureus Newman it was below 0.03 µg/mL. On E. coli gyrase, the IC50 is 1500 nM.
Turning to `C/C(=C\c1ccc(C#N)cc1)C(=O)Nc1ccc(C(=O)N[C@@H](CC(N)=O)C(=O)Nc2ccc(C(=O)Nc3ccc(C(=O)Nc4ccc(C(=O)O)c(O)c4OC(C)C)c(O)c3OC(C)C)cc2)cc1` [Compound 124, (S,E)-4-(4-(4-(4-Amino-2-(4-(3-(4-cyanophenyl)-2-methylacrylamido)benzamido)-4-oxobutanamido)benzamido)-2-hydroxy-3-isopropoxybenzamido)-2-hydroxy-3-isopropoxybenzoic acid], the MIC in the assay with E. coli WT DSM-1116 (setting [1]) came to 0.125 µg/mL (≈ 0.135 µM); in the assay with E. coli WT DSM-1116 (setting [3]) it was 0.5 µg/mL (≈ 0.54 µM); with S. aureus Newman (small panel, Tables 1a/1b), 0.06 µg/mL (≈ 0.0648 µM). In addition, the IC50 on E. coli gyrase was found to be 200 nM.
Turning to `CC(C)COc1c(NC(=O)c2ccc(NC(=O)[C@H](CC(N)=O)NC(=O)c3ccc(NC(=O)c4ccc(C#N)cc4)cc3)cc2)ccc(C(=O)Nc2ccc(C(=O)O)cc2)c1O` [Compound 126, (S)-4-(4-(4-(4-amino-2-(4-(4-cyanobenzamido)benzamido)-4-oxobutanamido)benzamido)-2-hydroxy-3-isobutoxybenzamido)benzoic acid], the MIC was below 0.03 µg/mL in the assay with E. coli ΔtolC; above 64 µg/mL in the assay on P. aeruginosa ΔmexAB; 0.25 µg/mL (≈ 0.303 µM) with E. coli WT DSM-1116 (setting [3]); above 64 µg/mL in the assay with P. aeruginosa WT PA14 (setting [4]); 0.25 µg/mL (≈ 0.303 µM) in the assay on S. aureus Newman (small panel, Tables 1a/1b).
`CC(C)Oc1c(NC(=O)c2ccc(NC(=O)[C@H](CC(N)=O)NC(=O)c3ccc(C#Cc4ccc(C#N)cc4)cc3)cc2)ccc(C(=O)Nc2ccc(C(=O)O)cc2)c1O` [Compound 128, (S)-4-(4-(4-(4-Amino-2-(4-((4-cyanophenyl)ethynyl)benzamido)-4-oxobutanamido)benzamido)-2-hydroxy-3-isopropoxybenzamido)benzoic acid]: the MIC in the assay on E. coli ΔtolC was 0.06 µg/mL (≈ 0.0757 µM); in the assay on P. aeruginosa ΔmexAB it was 0.5 µg/mL (≈ 0.631 µM); with E. coli WT DSM-1116 (setting [1]), 0.06 µg/mL (≈ 0.0757 µM); in the assay on P. aeruginosa WT PA14 (setting [2]) it was above 64 µg/mL; with S. aureus Newman it was below 0.03 µg/mL.
